{"source": "patent US12202829B2", "about": "“Heterocyclic compound” (FIMECS, Inc., priority 2018, dated 2025)", "molecular_target": "T1, human XIAP_BIR3 domain purified protein (Homo sapiens, UniProt P98170)", "T1 construct": "purchased R & D", "T1 sequence (P98170 252-356 limits assumed)": "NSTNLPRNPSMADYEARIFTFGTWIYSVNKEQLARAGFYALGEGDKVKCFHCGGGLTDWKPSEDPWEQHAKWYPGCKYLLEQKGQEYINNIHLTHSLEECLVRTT", "test": "XIAP binding inhibitory activity, HTRF method with b-Smac ligand", "conditions": "for inhibition at 3 µM: test compound 3 μM, first symbol of the cell, read-out: XIAP binding inhibition rate when the concentration of the test compound is 3 μM; for IC50: second symbol of the cell, read-out: XIAP binding 50% inhibitory concentration (IC50 value)", "in_short": "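HTRF competition: human XIAP BIR3 and C-terminally biotinylated Smac peptide AVPIAQK, each diluted to 90 nM before addition, in HEPES pH 7.5 buffer with NaCl, BSA, Triton X-100. Eu-cryptate anti-His/streptavidin-XL665 detection after ≥4 h at room temperature; inhibition % from 665/615 ratio versus no-compound control.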", "note": "Where a name gives a salt, the structure may show the parent alone."}
{"smiles": "CN[C@@H](C)C(=O)N[C@H](C(=O)N1CCN(C(=O)c2c(OCCOCCOCCO)c3cc(F)c(F)cc3n2C)CC1)C1CCCCC1", "note": "(stereo in doubt) [Example 62, (S)—N—((S)-1-Cyclohexyl-2-(4-(5,6-difluoro-3-(2-(2-(2-hydroxyethoxy)ethoxy)ethoxy)-1-methyl-1H-indole-2-carbonyl)piperazin-1-yl)-2-oxoethyl)-2-(methylamino)propanamide]", "values": [{"measurement": "inhibition at 3 µM", "value": "25 to 50", "unit": "%"}]}
{"smiles": "CN[C@@H](C)C(=O)N[C@H](C(=O)N1CCN(C(=O)c2ccc3nn(C)cc3c2)CC1)C1CCCCC1", "note": "[Example 22, (S)-N-((S)-1-cyclohexyl-2-(4-(2-methyl-2H-indazole-5-carbonyl)piperazin-l-yl)-2-oxoethyl)-2-(methylamino)propanamide]", "values": [{"measurement": "inhibition at 3 µM", "value": "25 to 50", "unit": "%"}]}
{"smiles": "CN[C@@H](C)C(=O)N[C@H](C(=O)N1CCN(C(=O)c2c(C(=O)NCCOC)c3ccc(OC)cc3n2C)CC1)C1CCCCC1", "note": "[Example 25, 2-(4-((S)-2-Cyclohexyl-2-((S)-2-(methylamino)propanamido)acetyl)piperazine-1-carbonyl)-6-methoxy-N-(2-methoxyethyl)-1-methyl-1H-indole-3-carboxamide Hydrochloride]", "values": [{"measurement": "inhibition at 3 µM", "value": "> 75", "unit": "%"}]}
{"smiles": "CN[C@@H](C)C(=O)N[C@H](C(=O)N1CCN(C(=O)c2cc3cc(F)c(OC)cc3n2C)C[C@H]1C)C1CCCCC1", "note": "[Example 57, (S)—N—[(S)-1-Cyclohexyl-2-[(R)-4-[(5-fluoro-6-methoxy-1-methyl-1H-indole-2carbonyl]-2-methylpiperazin-1-yl]-2-oxoethyl]-2-(methylamino)propanamide trifluoroacetate]", "values": [{"measurement": "IC50", "value": "0.3 to 3", "unit": "µM"}]}
{"smiles": "C[C@@H]1CN(CC(=O)N2CCN(C(=O)c3cc4cc(F)c(F)cc4n3C)C[C@H]2C)[C@@H](COCCOCCOCCO)CN1", "note": "[Example 64, 1-((R)-4-(5,6-Difluoro-1-methyl-1H-indole-2-carbonyl)-2-methylpiperazin-1-yl)-2-((2R,5R)-2-(2-(2-(2-hydroxyethoxy)ethoxy)ethoxymethyl)-5-methylpiperazin-1-yl)ethan-1-one]", "values": [{"measurement": "IC50", "value": "3 to 30", "unit": "µM"}]}
{"smiles": "CN[C@@H](C)C(=O)N[C@H](C(=O)N1CCN(C(=O)c2ccc3c(c2)c(F)c(C)n3CCOCCOCCO)CC1)C1CCCCC1", "note": "[Example 71, (S)—N—((S)-1-Cyclohexyl-2-(4-(3-fluoro-1-(2-(2-(2-hydroxyethoxy)ethoxy)ethyl)-2-methyl-1H-indole-5-carbonyl)piperazin-1-yl)-2-oxoethyl)-2-(methylamino)propanamide]", "values": [{"measurement": "inhibition at 3 µM", "value": "> 75", "unit": "%"}]}
{"smiles": "COc1ccc2cc(C(=O)N3CCN(C(=O)CN4C[C@@H](C)NC[C@@H]4CN4CCOC[C@H]4C)CC3)n(C)c2c1", "note": "[Example 36, 1-(4-(6-Methoxy-1-methyl-1H-indole-2-carbonyl)piperazin-1-yl)-2-((2R,5R)-5-methyl-2-(((R)-3-methylmorpholino)methyl)piperazin-1-yl)ethan-1-one]", "values": [{"measurement": "inhibition at 3 µM", "value": "> 75", "unit": "%"}]}
{"smiles": "CN[C@@H](C)C(=O)N[C@H](C(=O)N1CCN(C(=O)c2cc3cc(F)c(F)cc3n2CCOC)CC1)C1CCCCC1", "note": "[Example 54, (S)—N—((S)-1-Cyclohexyl-2-(4-(5,6-difluoro-1-(2-methoxyethyl)-1H-indole-2-carbonyl)piperazin-1-yl)-2-oxoethyl)-2-(methylamino)propanamide]", "values": [{"measurement": "IC50", "value": "3 to 30", "unit": "µM"}]}
{"smiles": "CN[C@@H](C)C(=O)N[C@H](C(=O)N1CCN(C(=O)c2ccn3nccc3c2)CC1)C1CCCCC1", "note": "[Example 2, (S)-N-((S)-1-cyclohexyl-2-oxo-2-(4-(pyrazolo[1,5-a]pyridine-5-carbonyl)piperazin-1-yl)ethyl)-2-(methylamino)propanamide]", "values": [{"measurement": "inhibition at 3 µM", "value": "25 to 50", "unit": "%"}]}
{"smiles": "CN[C@@H](C)C(=O)N[C@H](C(=O)N1CCN(C(=O)c2c(C(=O)NCC(=O)OC)c3ccc(OC)cc3n2C)CC1)C1CCCCC1", "note": "[Example 27, Methyl (2-(4-((S)-2-cyclohexyl-2-((S)-2-(methylamino)propanamido)acetyl)piperazine-1-carbonyl)-6-methoxy-1-methyl-1H-indole-3-carbonyl)glycinate Hydrochloride]", "values": [{"measurement": "inhibition at 3 µM", "value": "> 75", "unit": "%"}]}
{"smiles": "CN[C@@H](C)C(=O)N[C@H](C(=O)N1CCN(C(=O)c2c(C(=O)N3CCC[C@@H]3COC)c3ccc(OC)cc3n2C)CC1)C1CCCCC1", "note": "[Example 30, (S)—N—((S)-1-Cyclohexyl-2-(4-(6-methoxy-3-((R)-2-(methoxymethyl)pyrrolidine-1-carbonyl)-1-methyl-1H-indole-2-carbonyl)piperazin-1-yl)-2-oxoethyl)-2-(methylamino)propanamide Hydrochloride]", "values": [{"measurement": "inhibition at 3 µM", "value": "50 to 75", "unit": "%"}]}
{"smiles": "COc1ccc2cc(C(=O)N3CCN(C(=O)CN4C[C@@H](C)NC[C@@H]4CN(C)CCOCCO)CC3)n(C)c2c1", "note": "[Example 40, 2-((2R,5R)-2-(((2-(2-Hydroxyethoxy)ethyl) (methyl)amino)methyl)-5-methylpiperazin-1-yl)-1-(4-(6-methoxy-1-methyl-1H-indole-2-carbonyl)piperazin-1-yl)ethan-1-one Hydrochloride]", "values": [{"measurement": "inhibition at 3 µM", "value": "> 75", "unit": "%"}]}
{"smiles": "COc1ccc2cc(C(=O)N3CCN(C(=O)CN4C[C@@H](C)NC[C@@H]4CO)CC3)n(C)c2c1", "note": "[Example 39, 2-((2R,5R)-2-(Hydroxymethyl)-5-methylpiperazin-1-yl)-1-(4-(6-methoxy-1-methyl-1H-indole-2-carbonyl)piperazin-1-yl)ethan-1-one hydrochloride]", "values": [{"measurement": "inhibition at 3 µM", "value": "50 to 75", "unit": "%"}]}
{"smiles": "CN[C@@H](C)C(=O)N[C@H](C(=O)N1CCN(C(=O)c2cc3ccccn3c2)CC1)C1CCCCC1", "note": "[Example 7, (S)-N-((S)-1-cyclohexyl-2-(4-(indolizine-2-carbonyl)piperazin-1-yl)-2-oxoethyl)-2-(methylamino)propanamide]", "values": [{"measurement": "inhibition at 3 µM", "value": "> 75", "unit": "%"}]}
{"smiles": "CN[C@@H](C)C(=O)N[C@H](C(=O)N1CCN(C(=O)c2c(C(=O)NCCOCCOCC(=O)O)c3ccc(OC)cc3n2C)CC1)C1CCCCC1", "note": "[Example 37, 2-(2-(2-(2-(4-((S)-2-Cyclohexyl-2-((S)-2-(methylamino)propanamido)acetyl)piperazine-1-carbonyl)-6-methoxy-1-methyl-1H-indole-3-carboxamido)ethoxy)ethoxy)acetic Acid Hydrochloride]", "values": [{"measurement": "inhibition at 3 µM", "value": "50 to 75", "unit": "%"}]}
{"smiles": "CN[C@@H](C)C(=O)N[C@H](C(=O)N1CCN(C(=O)c2c(C(=O)NCCOCCOCCOCCNC(=O)C[C@@H]3N=C(c4ccc(Cl)cc4)c4c(sc(C)c4C)-n4c(C)nnc43)c3cc(F)c(F)cc3n2C)CC1)C1CCCCC1", "note": "[Example 74, N-(1-((S)-4-(4-chlorophenyl)-2,3,9-trimethyl-6H-thieno[3,2-f][1,2,4]triazolo[4,3-a][1,4]diazepin-6-yl)-2-oxo-6,9,12-trioxa-3-azatetradecan-14-yl)-2-(4-((S)-2-cyclohexyl-2-((S)-2-(methylamino)propanamido)acetyl)piperazine-1-carbonyl)-5,6-difluoro-1-methyl-1H-indole-3-carboxamide]", "values": [{"measurement": "inhibition at 3 µM", "value": "25 to 50", "unit": "%"}]}
{"smiles": "CN[C@@H](C)C(=O)N[C@H](C(=O)N1CCN(C(=O)c2cc3cc(F)ccc3n2CC(=O)NCCOCCOCCOCCNC(=O)C[C@@H]2N=C(c3ccc(Cl)cc3)c3c(sc(C)c3C)-n3c(C)nnc32)CC1)C1CCCCC1", "note": "[Example 77, (S)-N-((S)-2-(4-(1-(17-((S)-4-(4-chlorophenyl)-2,3,9-trimethyl-6H-thieno[3,2-f][1,2,4]triazolo[4,3-a][1,4]diazepin-6-yl)-2,16-dioxo-6,9,12-trioxa-3,15-diazaheptadecyl)-5-fluoro-1H-indole-2-carbonyl)piperazin-1-yl)-1-cyclohexyl-2-oxoethyl)-2-(methylamino)propanamide]", "values": [{"measurement": "inhibition at 3 µM", "value": "> 25", "unit": "%"}]}
{"smiles": "CN[C@@H](C)C(=O)N[C@H](C(=O)N1CCN(C(=O)c2cc3ccc(OC)cc3n2C)CC1)C1CCCCC1", "note": "[Example 1, (S)—N—((S)-1-Cyclohexyl-2-(4-(6-methoxy-1-methyl-1H-indole-2-carbonyl)piperazin-1-yl)-2-oxoethyl)-2-(methylamino)propanamide Hydrochloride]", "values": [{"measurement": "inhibition at 3 µM", "value": "> 75", "unit": "%"}]}
{"smiles": "CN[C@@H](C)C(=O)N[C@H](C(=O)N1CCN(C(=O)c2cc3cc(F)c(F)cc3n2CCOCCOCCO)CC1)C1CCCCC1", "note": "[Example 47, (S)—N—((S)-1-Cyclohexyl-2-(4-(5,6-difluoro-1-(2-(2-(2-hydroxyethoxy)ethoxy)ethyl)-1H-indole-2-carbonyl)piperazin-1-yl)-2-oxoethyl)-2-(methylamino)propanamide]", "values": [{"measurement": "IC50", "value": "3 to 30", "unit": "µM"}]}
{"smiles": "CN[C@@H](C)C(=O)N[C@H](C(=O)N1CCN(C(=O)c2cc3cc(F)ccc3n2CC(=O)NCCOCCNC(=O)C[C@@H]2N=C(c3ccc(Cl)cc3)c3c(sc(C)c3C)-n3c(C)nnc32)CC1)C1CCCCC1", "note": "[Example 75, (S)-N-((S)-2-(4-(1-(2-((2-(2-(2-((S)-4-(4-chlorophenyl)-2,3,9-trimethyl-6H-thieno[3,2-f][1,2,4]triazolo[4,3-a][1,4]diazepin-6-yl)acetamido)ethoxy)ethyl)amino)-2-oxoethyl)-5-fluoro-1H-indole-2-carbonyl)piperazin-1-yl)-1-cyclohexyl-2-oxoethyl)-2-(methylamino)propanamide]", "values": [{"measurement": "inhibition at 3 µM", "value": "> 25", "unit": "%"}]}
{"smiles": "CN[C@@H](C)C(=O)N[C@H](C(=O)N1CCN(C(=O)c2cc3ccc(F)cc3n2C)CC1)C1CCCCC1", "note": "[Example 14, (S)-N-((S)-1-cyclohexyl-2-(4-(6-fluoro-1-methyl-1H-indole-2-carbonyl)piperazin-1-yl)-2-oxoethyl)-2-(methylamino)propanamide]", "values": [{"measurement": "inhibition at 3 µM", "value": "50 to 75", "unit": "%"}]}
{"smiles": "CN[C@@H](C)C(=O)N[C@H](C(=O)N1CCN(C(=O)c2c(C(=O)NCCOCCOCCOCC(=O)N3CCN(c4cc(Nc5ncc(C(=O)Nc6c(C)cccc6Cl)s5)nc(C)n4)CC3)c3cc(F)ccc3n2C)CC1)C1CCCCC1", "note": "[Example 84, N-(2-chloro-6-methylphenyl)-2-((6-(4-(1-(2-(4-((S)-2-cyclohexyl-2-((S)-2-(methylamino)propanamido)acetyl)piperazine-1-carbonyl)-5-fluoro-1-methyl-1H-indol-3-yl)-1-oxo-5,8,11-trioxa-2-azatridecan-13-oyl)piperazin-1-yl)-2-methylpyrimidin-4-yl)amino)thiazole-5-carboxamide]", "values": [{"measurement": "inhibition at 3 µM", "value": "50 to 75", "unit": "%"}]}
